Consider 1 compound from patent publication US20120122679A1, “MESOIONIC PESTICIDES” (E. I. Du Pont De Nemours and Company, priority 2009, published 2012).

Molecules are shown by their SMILES.

The data set relates to green peach aphid (Myzus persicae). In words: Test F: control of green peach aphid on radish plant, contact and/or systemic. The class given is in vivo. To be noted: sprayed at 50 ppm; assessed after 6 days. As to the method: Test compounds were formulated using a solution containing 10% acetone, 90% water and 300 ppm X-77® Spreader Lo-Foam Formula non-ionic surfactant containing alkylarylpolyoxyethylene, free fatty acids, glycols and isopropanol (Loveland Industries, Inc. Greeley, Colorado, USA). The formulated compounds were applied in 1 mL of liquid through a SUJ2 atomizer nozzle with ⅛ JJ custom body (Spraying Systems Co. Wheaton, Ill., USA) positioned 1.27 cm (0.5 inches) above the top of each test unit. Test compounds were sprayed at 250 and/or 50 ppm, and replicated three times. After spraying of the formulated test compound, each test unit was allowed to dry for 1 h and then a black, screened cap was placed on top. The test units were held for 6 days in a growth chamber at 25° C. and 70% relative humidity. Plant feeding damage was then visually assessed based on foliage consumed.
For evaluating control of green peach aphid (Myzus persicae) through contact and/or systemic means, the test unit consisted, of a small open container with a 12-15-day-old radish plant inside. […]
Test compounds were formulated and sprayed at 250 ppm and/or 50 ppm as described for Test A. The applications were replicated three times. […] Each test unit was then visually assessed for insect mortality.

For the compound `O=c1c(SC(F)(F)F)c([O-])[n+](Cc2cnc(Cl)s2)c2ccccn12` [Compound 102], the “mortality (at least 80% mortality)” value is given as “at least 80%”.
